Reference: paper PMC10313921, “A living ex vivo platform for functional, personalized brain cancer diagnosis” (Cell Reports Medicine, 2023)

Legend:
Type in all cases: cell-based, human
[1] = system: MS21 (low-passage patient-derived GBM line); experiment: Drug screening of MS21 tumor foci on OBSCs; conditions: MS21 on OBSCs
Procedure, shortened: (§1)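 Bioluminescence viability readout, 3 d post-treatment, normalized to day-1 tumor fluorescence vs untreated; 6 drug concentrations or XRad, n = 4 foci per concentration. Drug sensitivity score sums weighted parameters comparing tumor kill with OBSC toxicity, ranging −100 to 100.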

[2] = system: LN229 (established GBM line); experiment: Drug screening of LN229 tumor foci on OBSCs
Procedure, shortened: as §1

[3] = system: PIS patient tumor tissue (intracranial sarcoma); experiment: Drug screening of uncultured patient tumor tissue PIS on OBSCs; conditions: PIS patient tissue; scale -100 to +100
Description: (§2) Tumor cells were seeded onto OBSCs 2h after slicing as described above. One day after tumor seeding, six concentrations of each drug were diluted in the media underneath each culture insert, or XRad was applied using an X-Rad 320 Precision X-ray machine (n = 4 tumor foci per concentration; n ≥ 24 tumor foci per drug per cell line). Three days after treatment, the bioluminescence of live tumor cells was measured using an AMI optical imager (Spectral Instruments) and dose-response curves were generated. Tumor survival was normalized to day one tumor fluorescence and compared to an untreated control group.
To engraft onto OBSCs, the cryopreserved/thawed or fresh brain tumor tissue was filtered through a 100 μm cell strainer. Each 50 mg of tissue was transfected with 1mL mcherry-FLuc Lentivirus at 1.5e7 vg/ml with 1μL polybrene for 4h at 37°C. After incubation, the brain tumor tissue was washed with PBS three times to remove the residual virus and reconstituted in PBS with a final volume of 150 μL. Then the tissue solution was engrafted atop OBSCs at ∼0.5 mg tissue in 3 μL of PBS on each hemisphere of the slice. The OBSC engrafted with patient tumor tissue was incubated at 37°C with 5% CO2 and 95% humidity. The BSM was changed after 24h and subsequently every 3 days. Tumor treatment studies were executed as described above for tumor lines. The viability of the patient tissue was measured by an AMI optical imaging system with the addition of 1.5 mg/mL luciferin underneath the culture insert.
(§3) Several weighted parameters were factored into an overall drug sensitivity score.
(§4) For DSS parameters 1–6, therapeutic windows were calculated by comparing OBSC toxicity and tumor response at the doses where tumor kill passed through the DSS parameter (Table S1 and S3). For DSS parameter 7, the therapeutic window was calculated by comparing the slopes through the tumor EC50 and the OBSC tox EC50. For DSS parameter 8, the therapeutic window was calculated by comparing the areas under tumor kill and OBSC tox curves. Normalized therapeutic window ratios for DSS parameters 1–8 within each drug-tumor-OBSC interaction were calculated in the following manner: within each window, values ranged from +1 to −1, where values approaching +1 signify increasing tumor kill relative to normal tissue toxicity, and values approaching −1 indicate agents where tumors remained highly viable while toxicity to the normal OBSC tissue was elevated. DSS parameters 9–11 were determined based on the behavior of the tumor in response to the drug, as defined above.
(§5) All individually weighed parameters were added together to generate the DSS. Overall DSS from 0 to 100 signify increasing efficacy in tumor kill relative to OBSC toxicity, while scores from 0 to −100 describe scenarios in which tumors thrive more effectively than OBSCs for a given treatment. Dose-response values were calculated via linear interpolation of raw data, not from best-fit curve equations.

[4] = system: GBM8 (high-passage patient-derived GBM line); experiment: Drug screening of GBM8 tumor foci on OBSCs; conditions: GBM8 on OBSCs
Procedure, shortened: as §1

[5] = system: MB231Br (breast cancer metastasis to brain); experiment: Drug screening of MB231Br tumor foci on OBSCs; conditions: MB231BR on OBSCs
[6] = system: PDIPG (low-passage pediatric patient-derived line); experiment: Drug screening of PDIPG tumor foci on OBSCs; conditions: PDIPG on OBSCs
Procedure, shortened: as §1

[7] = system: U373KO (RAD18 knockout of U373WT via CRISPR); experiment: Drug screening of U373KO tumor foci on OBSCs; conditions: U373 KO on OBSCs
Procedure, shortened: as §1

[8] = system: 7 cell lines (MB231Br, LN229, U373WT, U373KO, GBM8, MS21, PDIPG); experiment: Drug screening on OBSCs, summary over the panel of seven tumor lines; conditions: number of lines responding
Description: Tumor cells (0.17 μL, 25,000 cells) were seeded onto OBSCs 2h after slicing, with one tumor seeded in the center of each hemisphere for a total of two tumor foci per OBSC. BSM was changed 24h after slicing. Fluorescence images were taken 0 h, 24 h, and 96 h post-seeding for normalization of tumor size. Bioluminescence readouts were also taken at 0 h, 24 h, and 96 h post seeding for assessment of cell viability. Luciferin was added underneath the culture insert and allowed to incubate for 10 min before bioluminescence measurement on an AMI optical imaging system.
as §2, §3, §4, §5

[9] = system: U373WT (wild-type established GBM line); experiment: Drug screening of U373WT tumor foci on OBSCs; conditions: U373 WT on OBSCs
Procedure, shortened: as §1

[10] = area under the dose-response curve, trapezoidal rule
[11] = dose required to kill 10% of the tumor
[12] = dose required to kill 25% of the tumor
[13] = dose required to kill 50% of the tumor, read-out: EC50
[14] = dose required to kill 75% of the tumor
[15] = dose required to kill 90% of the tumor, read-out: EC90
[16] = dose required to kill 50% of the tumor
[17] = dose required to kill 90% of the tumor

What does the source list for `N.N.O=C([O-])C1(C(=O)[O-])CCC1.[Pt+2]` [Carboplatin]?
Killing at highest dose [1]: 1.00E+00 fraction of tumor population killed; AUC [1, 10]: 1.47E+02; EC10 [1, 11]: 59.7 µM; EC25 [1, 12]: 71.8 µM; EC50 [1, 13]: 91.9 µM; EC75 [1, 14]: 157 µM; EC90 [1, 15]: 215 µM; Slope ([1]; slope through the EC50): -1.24E-02; Killing at highest dose [2]: 1.00E+00 fraction of tumor population killed; AUC [2, 10]: 1.22E+02; EC10 [2, 11]: 4.17 µM; EC25 [2, 12]: 14 µM; EC50 [2, 16]: 133 µM; EC75 [2, 14]: 193 µM; EC90 [2, 17]: 229 µM; Slope ([2]; slope through the EC50): -4.20E-03; DSS (drug sensitivity score) [3]: 88; Killing at highest dose [4]: 1.00E+00 fraction of tumor population killed; AUC [4, 10]: 1.03E+01; EC10 [4, 11]: 1.16 µM; EC25 [4, 12]: 2.91 µM; EC50 [4, 13]: 5.81 µM; EC75 [4, 14]: 8.72 µM; EC90 [4, 15]: 26 µM; Slope ([4]; slope through the EC50): -8.60E-02; Killing at highest dose [5]: 1.00E+00 fraction of tumor population killed; AUC [5, 10]: 1.89E+02; EC10 [5, 11]: 117 µM; EC25 [5, 12]: 119 µM; EC50 [5, 16]: 122 µM; EC75 [5, 14]: 125 µM; EC90 [5, 17]: 213 µM; Slope ([5]; slope through the EC50): -8.00E-02; Killing at highest dose [6]: 1.00E+00 fraction of tumor population killed; AUC [6, 10]: 1.79E+02; EC10 [6, 11]: 4.76 µM; EC25 [6, 12]: 20 µM; EC50 [6, 13]: 86.1 µM; EC75 [6, 14]: 211 µM; EC90 [6, 15]: 583 µM; Slope ([6]; slope through the EC50): -3.59E-03; Killing at highest dose [7]: 9.99E-01 fraction of tumor population killed; AUC [7, 10]: 1.92E+02; EC10 [7, 11]: 9.09 µM; EC25 [7, 12]: 125 µM; EC50 [7, 16]: 172 µM; EC75 [7, 14]: 219 µM; EC90 [7, 17]: 248 µM; Slope ([7]; slope through the EC50): -5.29E-03; response / killing over the 7 cell lines [8]: robust response; Killing at highest dose [9]: 1.00E+00 fraction of tumor population killed; AUC [9, 10]: 3.11E+02; EC10 [9, 11]: 93.2 µM; EC25 [9, 12]: 103 µM; EC50 [9, 16]: 176 µM; EC75 [9, 14]: 250 µM; EC90 [9, 17]: 700 µM; Slope ([9]; slope through the EC50): -3.40E-03
